Like-named read-outs stand apart in the source and are kept apart here.
Columns and labels:
[1] = target: T1, GABAAR(α1/β3/γ2) (Homo sapiens, UniProt P14867+P18507+P28472); test: Ligand detection / high-throughput screening by fluorescence change ratio; assay type: binding; details: for assignment of hit compound from the screening: third and fourth screening, LOPAC1280, 10 μM
[2] = target: GABAARs; details: cited from earlier work
[3] = target: T1, GABAAR(α1/β3/γ2); assay type: binding
[4] = target: T1, GABAAR(α1/β3/γ2); test: Whole-cell patch-clamp electrophysiology in GABAAR-transfected HEK293T cells; assay type: cell-based; details: for chloride currents in the absence of GABA at high concentrations: 100 μM for CGP-7930 and CGP-13501, 25 μM for vinpocetine, Retro-2 and YC-1
[5] = target: T1, GABAAR(α1/β3/γ2); test: Dissociation constant of PAM at fixed 10 μM GABA; assay type: binding

Compound	fluorescence change (ΔF/F0) upon ligand addition in the absence of GABA [1]	fluorescence change (ΔF/F0) upon ligand addition in the presence of GABA [1]	assignment of hit compound from the screening [1]	Kd [5] [nM]	also measured
CCOC(=O)c1cncn1[C@H](C)c1ccccc1 [etomidate]	negligible fluorescence change	pronounced fluorescent decrease			Kd ([2]; read-out: Kd of etomidate previously reported using live cells): 1800 nM
picrotoxin	no effect on the fluorescence intensity	no effect on the fluorescence intensity			
COc1ccc(-c2ccc(=N)n(CCCC(=O)O)n2)cc1 [gabazine]	significant decrease	significant decrease	potential orthosteric ligands		Kd [3]: 214 nM; concentration at which the fluorescence decrease reached saturation ([3]; 100 nM Gzn-OG, CLSM image): approximately 10 μM
CCOC(=O)C1=C[C@]2(CC)CCCN3CCc4c(n1c1ccccc41)[C@@H]32 [vinpocetine]			PAM candidates	1400	chloride currents in the absence of GABA at high concentrations ([4]; no GABA): increased the chloride currents; effect on GABA-induced chloride currents ([4]; [compound] = 3 μM, [GABA] = 30 μM, −60 mV): reversibly enhanced; direct activation of GABAARs at low concentrations ([4]; low concentrations (3 μM), no GABA): did not induce any direct activation of GABAARs
CC(C)c1cccc(C(C)C)c1O [propofol]	negligible fluorescence change	pronounced fluorescent decrease		5600	Kd ([2]; read-out: Kd of propofol previously reported using live cells): 1900 nM
Cc1ccc(-c2nc3ccc(C)cn3c2CC(=O)N(C)C)cc1 [zolpidem]	negligible fluorescence change	pronounced fluorescent decrease			
COc1ccc2c(c1OC)C(=O)O[C@@H]2[C@H]1c2cc3c(cc2CCN1C)OCO3 [hydrastine]			potential orthosteric ligands		
CC1=C(C)C(=O)C(CCCCC#CCCCC#CCO)=C(C)C1=O [AA-861]			PAM candidates		
CC(C)(CO)Cc1cc(C(C)(C)C)c(O)c(C(C)(C)C)c1 [CGP-7930, 2,6-Di-tert-butyl-4-(3-hydroxy-2,2-dimethyl-propyl)-phenol]			PAM candidates	13100	chloride currents in the absence of GABA at high concentrations ([4]; no GABA): increased the chloride currents

Reference: PMC6764212 (ACS Central Science, 2019)
